Assays:
[1] = Ligand facilitated Fe(III) efflux from liposomes; conditions: 10 uM ligand concentration; for Liposome Fe transport kefflux at 10 10 μM: Table 1; for Liposome Fe transport Kefflux at 10 μM: Table 2
Experimental: Assay 1: Ligand Facilitated Fe(III) Efflux from Liposomes Preparation of POPC (1-palmitoyl-2-oleoyl-sn-glycero-3-phosphocholine): Cholesterol Liposomes:
A 1M buffer solution of MES and Tris was prepared by dissolving 121.14 grams of Tris base and 213.25 grams of MES hydrate in 500 mL of MilliQ water and adjusted to pH7.0 using an […] HCl solution before bringing the total volume of the solution to 1 L. A 500 mM solution of FeCl3 was prepared by dissolving 0.811 grams of anhydrous FeCl3 in 10 mL of a 0.1M H2SO4 aqueous solution. Inside buffer is prepared in a 50 mL falcon tube, which was added with 25 mL of MilliQ water, 1.61 g of sodium citrate, 1.5 mL of the above FeCl3 solution, and 2.5 mL of the 1M MES/Tris HCl buffer (pH=7.0), and finally additional MilliQ H2O to bring to a 50 mL final volume.
Lipid solution is prepared by dissolving 206.9 mg of POPC (1-palmitoyl-2-oleoyl-sn-glycero-3-phosphocholine) and 8.6 mg of cholesterol in 10 mL of ethanol.
The lipids solution and the inside buffer solution are independently loaded into 10 mL luer lock syringes for loading into a virgin cartridge on a Precision Nanosystems NanoAssembler to prepare unilamaller liposomes with the following parameters: 7.5 mL total volume, 1.5:1 mixing ratio of inside buffer:lipids solution, 8 mL/min flow rate, ambient temperature, 0.35 mL start waste, and 0.05 mL of end waste. 7.5 mL of liposomes is harvested for purification on a 6-inch long, 1-inch diameter Sephadex G-50 column wetted in 600 mM sodium ascorbate and 50 mM MES/Tris HCl pH 7.0 buffer. This buffer also serves as the column running buffer. The crude liposome solution is carefully loaded with minimal volume of running buffer above the top of the Sphadex, allowed to enter the matrix, and the column is run with the continued addition of running buffer. The eluting liposomes, observed as a milky and turbid solution, are collected until free iron begins to elute (observed as a deep purple color) and the fractions are pooled for phosphorus quantitation.
Phosphorus content of eluted liposomes was determined by the process outlined below. 10 uL of liposome elution and a running buffer blank are added to a 5 mL glass vial containing 450 uL of a 8.9 M aqueous H2SO4 solution, the mixture is heated to 225° C. for 25 minutes in an aluminum heat block to hydrolyze POPC and cooled for 5 minutes. 200 ul of a 30% hydrogen peroxide aqueous solution is added to each vial and heated to 225° C. for 25 minutes. After cooling, the phosphorus content was determined using an Abcam Phosphate Assay kit, with buffer subtracted phosphorus levels determined against a standard curve of phosphate included in the kit. Liposomes were diluted to 1 mM phosphate in Running Buffer for use in assays after accounting for dilutions made during phospholipid digestion.
Determination of the rate at which a small molecule ligand liberates (transport) Ferric iron from liposomes is performed in clear bottom black 384-well plates on a Spectramax i3x set to read the absorbance at 562 nm in the kinetic mode every 60 seconds for 120 minutes. 1 uL of serially diluted DMSO stock solution of a small molecule ligand is added to wells in triplicate to give the final concentrations of 40, 20, 10, 5, 2.5, and 1.25 uM of the ligand at 80 μL final volume, followed by addition of 1 μL of 100 mM Ferrozine in water to give a final concentration of 1 mM ferrozine. 78 uL of liposomes diluted to 1 mM phosphorus in running buffer is added to wells as quickly as possible (using a digital repeater mulchannel pipette) with the kinetic read initiated as rapidly as possible after addition of liposomes to all wells. Typically, eight compounds at six concentrations are tested in triplicate simultaneously.
Upon completion of kinetic read, the data for individual reads is fitted to a single phase association regression with the equation Y=(Y0−YMax)^(−kX)+YMax, with Y being the 562 absorbance value and X being time in minutes. […]

[2] = tested on: DMT1-deficient Caco-2 cells; test: shDMT1-Caco2 55Fe transport assay; format: cell-based; conditions: Caco-2
Text: Assay 2: shDMT1-Caco2 ^55Fe Transport Assay to Assess Ligand Ability in Transporting Fe (III)
Cells: DMT1-deficient Caco-2 cells (alias: “shDMT1,” or “4A” cells) were from Grillo et al. Science, 2017, and were cryopreserved in liquid nitrogen prior to use.
Reagents and supplies: ^55FeCl3 was obtained from PerkinElmer (Boston, MA). Iron(III) chloride (FeCl3) hexahydrate was obtained from Sigma. Dulbecco's Modified Eagle Medium (DMEM), fetal bovine serum (FBS), L-glutamine, MEM nonessential amino acids, penicillin-streptomycin, G418, formic acid, methanol, high-purity water, ammonium formate, dimethyl sulfoxide (DMSO) were purchased from Fisher Scientific. Propranolol, atenolol and carbutamide were obtained from Sigma-Aldrich Chemical Company (St Louis, MO). Scintillation cocktail was obtained from Research Product International Co. (Mount Prospect, IL). Stericup filter system (PES membrane, 0.22 um pore size) was purchased from Fisher Scientific. Coming item #3378 24-well transwell insert plates. Test articles: known compounds hinokitiol and deferiprone were purchased from Sigma. They are tested side by side with the small molecule ligands disclosed in this application. DMSO stocks (10 mM, which is 1,000× of the 10 μM dose level) of hinokitiol or test articles were prepared. A stock solution of 25 mM deferiprone in DMSO was prepared. The DMSO stock solutions were stored at −20° C. or below when not in use.
The growth medium was prepared according to the following table
Apical media (serum free DMEM, 10 mM MES, pH 6.5) was prepared. Apical master mix media was prepared fresh with the addition of 200 nM ^55Fe before each experiment. For the negative control propranolol and atenolol wells, 200 nM of non-radioactive iron was used.
The basolateral media was serum-free DMEM, 10 mM HEPES, 2% bovine serum albumin (BSA), pH 7.4.
For each experiment, cells were seeded into the 24-well transwell plates (0.5 mL of 50,000 cells/mL) with growth media. The basolateral companion plate was loaded with 1 mL of growth media. After 12-24 hr, both the apical and basolateral chamber were replaced with growth media. The apical media was changed 3× per week for 21-28 days, including a media change exactly 48 hr before the assay date.
On the assay day, the TEER values were measured and the average TEER values was obtained. Individual wells with TEER vaule >35% lower than the average of all wells were excluded. For the qualified wells, the apical layer (twice) and basolaterial (once) chambers were washed with PBS. The basolateral companion plate was then filled with 1 mL of basolateral media. Via addition down the side-wall of the apical well, 300 μL per well of the apical assay master mix, with the indicated dose level of test article, was added. Each dose was tested in triplicate. The plates were incubated (5% CO2 and 90% humidity at 37° C.) for the indicated timepoints. At each indicated timepoint, the basolateral supernatant was gently mixed via pipetting, and 200 μL of the basolateral supernatant was transferred to scintillation vials. To each scintillation counting vial, 5 mL of scintillation cocktail fluid was added. For each scintillation vial, the radioactivity (CPM) was determined with liquid scintillation counter LS6500. The counting time per vial was 5 min.
All raw CPM values are divided by the average value of blank DMSO solution to give a fold of change above the DMSO value. The mean and standard deviation of each compound at each concentration level and at each time point measured was calculated to give the fold change (fc) value.
For rank order compounds, the fc value of a ligand at 4 h time point is further divided by the fold change (fc) value of hinokitiol (a positive control compound) at an equimolar concentration to arrive at the FC (normalized fold of change) value. Data reported in Tables 1 and 2 is 4 hr time point FC=fc-ligand @ 3 uM/fc-hino @ 3 uM, and FC hino=1.

Mouse 6-hour PK study = conditions: in vivo
Text: Compounds of the present disclosure were further evaluated in standard in vitro and in vivo Absorption, Distribution, Metabolism, Excretion (ADME) and Drug Metabolism and Pharmacokinetics (DMPK) assays to assess drug profiles important for further drug development.
Such assessments included human and mouse liver microsomal stability assays as well as 6-hour mouse PK studies.

Caco2 shDMT1 transport FC @ 3 μM, 4h [2] | SMILES | Liposome Fe transport kefflux at 10 10 μM [1] | other results
0.01-0.5 | Cc1ncccc1-c1cccc(=O)c(O)c1 [Ex.53, 2-hydroxy-4-(2-methylpyridin-3-yl)cyclohepta-2,4,6-trien-1-one] | 0.1-5 | –
0.01-0.5 | Cc1ncc(-c2ccccc(=O)c2O)c(C)n1 [Ex.36, 3-(2,4-dimethylpyrimidin-5-yl)-2-hydroxycyclohepta-2,4,6-trien-1-one] | 5-7.5 | –
0.01-0.5 | O=c1c(O)ccccc1-c1ccncn1 [Ex.47, 2-hydroxy-7-(pyrimidin-4-yl)cyclohepta-2,4,6-trien-1-one] | 0.1-5 | –
0.01-0.5 | O=c1ccccc(-c2cccc(F)n2)c1O [Ex.69, 3-(6-fluoropyridin-2-yl)-2-hydroxycyclohepta-2,4,6-trien-1-one] | – | Liposome Fe transport Kefflux at 10 μM [1]: 10-25
0.01-0.5 | O=c1ccc(-c2cncc(F)c2)ccc1O [Ex.15, 5-(5-fluoropyridin-3-yl)-2-hydroxycyclohepta-2,4,6-trien-1-one] | 5-7.5 | –
0.01-0.5 | Cc1ncc(-c2ccc(O)c(=O)cc2)cc1F [Ex.59, 5-(5-fluoro-6-methylpyridin-3-yl)-2-hydroxycyclohepta-2,4,6-trien-1-one] | 5-7.5 | –
0.5-1 | O=c1ccccc(-c2cscn2)c1O [Ex.76, 2-hydroxy-3-(thiazol-4-yl)cyclohepta-2,4,6-trien-1-one] | – | AUC(0-t) (Mouse 6-hour PK study): 500 to 1500 ng·h/mL; Cmax (Mouse 6-hour PK study): 1500 to 5000 ng/mL; half-life (Mouse 6-hour PK study): < 1.25 h; mouse 6-hour PK properties compared to hinokitiol (Mouse 6-hour PK study): one or more improved mouse 6-hour PK properties compared to hinokitiol
0.01-0.5 | COc1ncc(-c2cccc(=O)c(O)c2)cn1 [Ex.30, 2-hydroxy-4-(2-methoxypyrimidin-5-yl)cyclohepta-2,4,6-trien-1-one] | 0.1-5 | –
0.01-0.5 | N#Cc1cncc(-c2cccc(=O)c(O)c2)c1 [Ex.4, 5-(6-hydroxy-5-oxocyclohepta-1,3,6-trien-1-yl)nicotinonitrile] | 0.1-5 | –
0.01-0.5 | Cc1ncc(-c2ccc(O)c(=O)cc2)c(C)n1.O=C(O)C(F)(F)F [Ex.35, 5-(2,4-dimethylpyrimidin-5-yl)-2-hydroxycyclohepta-2,4,6-trien-1-one] | 7.5-10 | –
0.01-0.5 | O=c1cccc(-c2cncc(Cl)c2)cc1O [Ex.17, 4-(5-chloropyridin-3-yl)-2-hydroxycyclohepta-2,4,6-trien-1-one] | 5-7.5 | –
0.01-0.5 | Cc1ncc(F)cc1-c1cccc(=O)c(O)c1 [Ex.58, 4-(5-fluoro-2-methylpyridin-3-yl)-2-hydroxycyclohepta-2,4,6-trien-1-one] | 0.1-5 | –
0.5-1 | O=c1ccccc(-c2cncs2)c1O [Ex.75, 2-hydroxy-3-(thiazol-5-yl)cyclohepta-2,4,6-trien-1-one] | – | Liposome Fe transport Kefflux at 10 μM [1]: 0.1-5
0.01-0.5 | Cc1ncc(-c2ccccc(=O)c2O)cn1 [Ex.34, 2-hydroxy-3-(2-methylpyrimidin-5-yl)cyclohepta-2,4,6-trien-1-one] | 0.1-5 | –
0.5-1 | COc1cc(-c2cccc(=O)c(O)c2)cnc1OC [Ex.12, 4-(5,6-dimethoxypyridin-3-yl)-2-hydroxycyclohepta-2,4,6-trien-1-one] | 7.5-10 | –
0.01-0.5 | CC(C)c1ccc(O)c(=O)c(-c2cncc(F)c2)c1 [Ex.61, 2-(5-fluoropyridin-3-yl)-7-hydroxy-4-isopropylcyclohepta-2,4,6-trien-1-one] | 7.5-10 | –
0.01-0.5 | COc1cncc(-c2cccc(=O)c(O)c2)c1 [Ex.10, 2-hydroxy-4-(5-methoxypyridin-3-yl)cyclohepta-2,4,6-trien-1-one] | 0.1-5 | –
0.01-0.5 | Cc1cc(-c2cccc(=O)c(O)c2)cnc1N [Ex.56, 4-(6-amino-5-methylpyridin-3-yl)-2-hydroxycyclohepta-2,4,6-trien-1-one] | 0.1-5 | –
0.01-0.5 | O=c1cccc(-c2ccncc2F)cc1O [Ex.50, 4-(3-fluoropyridin-4-yl)-2-hydroxycyclohepta-2,4,6-trien-1-one] | 0.1-5 | –
